{"source": "patent US8911953B2", "about": "“TDF-related compounds and analogs thereof, analogs and bioactive fragments” (Thrasos Innovation, Inc., priority 2005, dated 2014)", "key": {"[1]": {"system": "vascular endothelial cells", "test": "Smad 1, 5 phosphorylation in vascular endothelial cells (Western blot)", "type": "cell-based", "conditions": "added to vascular endothelial cells in culture", "procedure": "(§1) Phosphorylation and nuclear translocation of Smads occurs following the activation of Type I and Type II receptors and subsequent signal transduction to intracellular Smad targets. Phosphorylation and nuclear translocation of R-Smad in HK-2, vascular endothelial, human prostate or other cells by TDFRP compounds is assayed by immuno-fluorescent microscopy methods, using anti-phospho Smad 1/5 antibodies according to the procedure of H Aoki, M Fujii, T Imamura, K Yagi, K Takehara, M Kato and K Miyazono. J. of Cell Sci. 114, 1483-1489, 2001) and by Western blot analysis (FIGS. 2, 3, 18, 2X).\n(§2) The detection of Smad phosphorylation by Western analysis, for example in LNCaP (prostate cancer cells) or EC (vascular endothelial cells) in culture medium can be examined after exposure to varying concentrations of TDFRP or control compounds. BMP-7 serves as a positive control. Cells are lysed in RIPA lysis buffer (50 mM Tris-HCl at pH 8.0, 150 mM NaCl, 1% NP-40, 0.5% sodium deoxycholate, 0.1% SDS) containing 1 mM PMSF, 1 mM sodium orthovanadate, and 10 ug/mL proteinase inhibitor cocktail. Lysates are incubated on ice for 15 minutes, centrifuged, and transferred supernatant to a clean tube. 50 to 100 ug is used for analysis by SDS-PAGE. Resolved proteins are electro transferred onto PVDF membrane. The blot is blocked by incubating in 3% non-fat dry milk prepared in PBS at room temperature for 1 hour with constant slow agitation. The blot is incubated with 1-2 ug/mL of primary antibody (rabbit anti-phospho-Smad 1) prepared in PBS-milk, overnight with agitation at 4 degree C., washed twice with PBS, and incubated with secondary antibody (anti rabbit HRP conjugated IgG, 1:3000 dilution) at room temperature for 2 hours with agitation. After washing in PBS-0.05% Tween 20 for 5 minutes and rinsing, Smad phosphorylation is detected via an HRP reaction according to manufacturer's instructions (FIGS. 2, 3, 18, 2X).\nas §1, with “HK-2” for “HK-2, vascular endothelial, human prostate or other”, “analysis in various cell types” for “analysis”, “27).” for “2X).”\n(§3) For detection of Smad phosphorylation by Western analysis, LNCaP (prostate cancer cells) or EC (vascular endothelial cells) in culture medium are exposed to varying concentrations of TDFRP or control compounds. BMP-7 served as a positive control. Cells are lysed in RIPA lysis buffer (50 mM Tris-HCl at pH 8.0, 150 mM NaCl, 1% NP-40, 0.5% sodium deoxycholate, 0.1% SDS) containing 1 mM PMSF, 1 mM sodium orthovanadate, and 10 ug/mL proteinase inhibitor cocktail. Lysates are incubated on ice for 15 minutes, centrifuged, and transferred supernatant to a clean tube. 50 to 100 ug is used for analysis by\n(§4) SDS-PAGE. Resolved proteins are electro transferred onto PVDF membrane. The blot is blocked by incubating in 3% non-fat dry milk prepared in PBS at room temperature for 1 hour with constant slow agitation. The blot is incubated with 1-2 ug/mL of primary antibody (rabbit anti-phospho-Smad 1) prepared in PBS-milk, overnight with agitation at 4 degree C., washed twice with PBS, and incubated with secondary antibody (anti rabbit HRP conjugated IgG, 1:3000 dilution) at room temperature for 2 hours with agitation. After washing in PBS-0.05% Tween 20 for 5 minutes and rinsing, Smad phosphorylation is detected via an HRP reaction according to manufacturer's instructions (FIGS. 3, 27)."}, "[2]": {"system": "LNCaP human prostate cancer cells", "test": "Smad phosphorylation in LNCaP prostate cancer cells (Western blot)", "type": "cell-based", "conditions": "for Smad 1, 5, 8 phosphorylation on co-administration: TDFRP compound co-administered with BMP-6, LNCaP cells; for Smad phosphorylation and activation: single agent, cultured LNCaP cells", "procedure": "as §2, §3, §4\nBMP signaling molecules co-administered with TDFRP compounds show synergistic or enhanced downstream signaling as detected by Smad phosphorylation. Smad phosphorylation was assessed by Western analysis in LNCaP (prostate cancer cells) or EC (vascular endothelial cells) cells in culture medium exposed to varying concentrations of TDFRP or control compounds. BMP-7 served as a positive control. Cells are lysed in RIPA lysis buffer (50 mM Tris-HCl at pH 8.0, 150 mM NaCl, 1% NP-40, 0.5% sodium deoxycholate, 0.1% SDS) containing 1 mM PMSF, 1 mM sodium orthovanadate, and 10 ug/mL proteinase inhibitor cocktail. Lysates are incubated on ice for 15 minutes, centrifuged, and transferred supernatant to a clean tube. 50 to 100 ug is used for analysis by SDS-PAGE. Resolved proteins are electro transferred onto PVDF membrane. […]"}}, "note": "Entries after “also recorded” stand apart in the source; their conditions may differ. Positions of bridges follow the written chain, without caps; N, C: chain ends. No end group written: not given here.", "data": [{"sequence": "CYFDDSSNVLCKKYRS (disulfide 1-11 (inferred); not fully specified) [SEQ ID NO:45]", "values": [{"measurement": "phosphorylation and activation of intracellular Smad 1, 5", "setting": "[1]", "value": "phosphorylation and activation of intracellular Smad 1, 5"}, {"measurement": "Smad 1, 5, 8 phosphorylation on co-administration", "setting": "[2]", "value": "enhanced"}, {"measurement": "Smad 1, 5, 8 phosphorylation on co-administration", "setting": "[2]; listed as SEQ ID NO: 45", "value": "enhanced or synergistic activity"}, {"measurement": "Smad phosphorylation and activation", "setting": "[2]", "value": "induced"}, {"measurement": "Smad phosphorylation and activation", "setting": "[2]; listed as SEQ ID NO: 45", "value": "phosphorylation and activation of Smad1 and Smad5; also recorded: Smad 1, 5, 8 phosphorylation and activation"}]}]}
